In data set [1] the test system is Quadruplex DNA. Kind of data set: Alkylating activity at 5'-FAM-labeled human telomeric G-quadruplex DNA in K+ buffer at 100 uM measured up to 72 hrs by PAGE analysis. In kind it is functional.
Data set [2] is described as follows: Alkylating activity at 5'-FAM-labeled T-T mismatched duplex DNA (unknown origin) in MES buffer at 100 uM measured up to 72 hrs by PAGE analysis. It is filed as functional.
Data set [3] relates to Quadruplex DNA. Description: Alkylating activity at 5'-FAM-labeled human telomeric G-quadruplex DNA at 100 uM in Na+ buffer measured up to 72 hrs by PAGE analysis. It is filed as functional.
The next data set concerns dsDNA. Description: Alkylating activity at 5'-FAM-labeled T-A full-matched duplex DNA (unknown origin) in MES buffer at 100 uM measured up to 72 hrs by PAGE analysis. It is filed as functional.
Data set [4] is described as follows: Solubility of the compound in water. The note with it: buffer. In kind it is physicochemical.
A short description of data set [5]: Binding affinity to T-T mismatched duplex DNA (unknown origin) by isothermal calorimetric titration method. For orientation: ITC needs no label: the signal is the heat of the interaction.
The target in data set [6] is Quadruplex DNA. Kind of data set: Binding affinity to human telomeric G-quadruplex DNA in K+ buffer at 9.4 uM by UV-vis titration analysis. In kind it is nucleic-acid assay.
For data set [7], the target named is Quadruplex DNA. Kind of data set: Binding affinity to human telomeric G-quadruplex DNA in K+ buffer at 0.2 uM after 15 mins by spectrofluorometric method. In kind it is nucleic-acid assay.
Data set [8] in a line: Binding affinity to T-T mismatched duplex DNA (unknown origin) in MES buffer at 0.2 uM after 15 mins by spectrofluorometric method.
The test system of data set [9] is Quadruplex DNA. Kind of data set: Binding affinity to human telomeric G-quadruplex DNA in Na+ buffer at 0.2 uM after 15 mins by spectrofluorometric method. It is filed as nucleic-acid assay.
Data set [10] deals with Quadruplex DNA. Description: Binding affinity to human telomeric G-quadruplex DNA in Na+ buffer at 9.4 uM UV-vis titration analysis. In kind it is nucleic-acid assay.
In data set [11] the test system is Quadruplex DNA. Description: Alkylating activity at human telomeric G-quadruplex DNA in K+ buffer assessed as thermal stabilization by measuring change in melting temperature at 1.5 uM by circular dichroism spectral analysis. It is filed as functional.
Data set [12] relates to Quadruplex DNA. Kind of data set: Alkylating activity at 12T base of human telomeric G-quadruplex DNA in K+ buffer at 100 uM using 9-mer primer after 72 hrs by primer extension method. In kind it is functional.
The subject of data set [13] is Quadruplex DNA. Description: Effect on conformation of human telomeric G-quadruplex DNA in K+ buffer by circular dichroism spectral analysis. In kind it is nucleic-acid assay. A general note: CD spectra are sensitive to the conformation of chiral molecules.
In data set [14] the test system is Quadruplex DNA. Description: Effect on conformation of human telomeric G-quadruplex DNA in Na+ buffer by circular dichroism spectral analysis. It is filed as nucleic-acid assay.
Data set [15] deals with Quadruplex DNA. Description: Alkylating activity at human telomeric G-quadruplex DNA in Na+ buffer assessed as thermal stabilization by measuring change in melting temperature at 1.5 uM by circular dichroism spectral analysis. It is filed as functional.
The test system of data set [16] is Quadruplex DNA. Description: Alkylating activity at 13T base of human telomeric G-quadruplex DNA in K+ buffer at 100 uM using 9-mer primer after 72 hrs by primer extension method. It is filed as functional.
Data set [17] concerns Quadruplex DNA. Description: Alkylating activity at 14G base of human telomeric G-quadruplex DNA in K+ buffer at 100 uM using 9-mer primer after 72 hrs by primer extension method. It is filed as functional.
Data set [18] relates to Quadruplex DNA. Description: Alkylating activity at 18T base of human telomeric G-quadruplex DNA in K+ buffer at 100 uM using 9-mer primer after 72 hrs by primer extension method. In kind it is functional.
Data set [19] has as its system Quadruplex DNA. Description: Alkylating activity at 19T base of human telomeric G-quadruplex DNA in K+ buffer at 100 uM using 9-mer primer after 72 hrs by primer extension method. It is filed as functional.
Data set [20] concerns Quadruplex DNA. Kind of data set: Alkylating activity at 12T base of human telomeric G-quadruplex DNA in Na+ buffer at 100 uM using 9-mer primer after 72 hrs by primer extension method. It is filed as functional.
Data set [21] relates to Quadruplex DNA. Description: Alkylating activity at 13T base of human telomeric G-quadruplex DNA in Na+ buffer at 100 uM using 9-mer primer after 72 hrs by primer extension method. In kind it is functional.
The subject of data set [22] is Quadruplex DNA. Kind of data set: Alkylating activity at 14G base of human telomeric G-quadruplex DNA in Na+ buffer at 100 uM using 9-mer primer after 72 hrs by primer extension method. In kind it is functional.
In data set [23] the test system is Quadruplex DNA. Kind of data set: Alkylating activity at 18T base of human telomeric G-quadruplex DNA in Na+ buffer at 100 uM using 9-mer primer after 72 hrs by primer extension method. In kind it is functional.
Data set [24] deals with Quadruplex DNA. Description: Alkylating activity at 19T base of human telomeric G-quadruplex DNA in Na+ buffer at 100 uM using 9-mer primer after 72 hrs by primer extension method. It is filed as functional.
Data set [25] concerns Quadruplex DNA. Description: Alkylating activity at 24T base of human telomeric G-quadruplex DNA in Na+ buffer at 100 uM using 9-mer primer after 72 hrs by primer extension method. It is filed as functional.
Data set [26] relates to Quadruplex DNA. Description: Alkylating activity at 25T base of human telomeric G-quadruplex DNA in Na+ buffer at 100 uM using 9-mer primer after 72 hrs by primer extension method. In kind it is functional.
In data set [27] the test system is Quadruplex DNA. Kind of data set: Alkylating activity at T bases of human telomeric G-quadruplex DNA in K+ buffer at 100 uM using 11-mer primer after 72 hrs by primer extension method. In kind it is functional.
Data set [28] relates to Quadruplex DNA. Kind of data set: Alkylating activity at T bases of human telomeric G-quadruplex DNA in Na+ buffer at 100 uM using 11-mer primer after 72 hrs by primer extension method. It is filed as functional.
Data set [29] has as its system Quadruplex DNA. Kind of data set: Alkylating activity at T base of human telomeric G-quadruplex DNA in K+ buffer assessed as thymidine-compound adduct formation at 100 uM using 9-mer primer after 72 hrs by alkaline phosphatase and phosphodiesterase-1 enzymatic hydrolysis assay based ESI-MS analysis. It is filed as functional.

The record followed here is ChEMBL document CHEMBL4118221, “Vinyldiaminotriazine-acridine conjugate as G-quadruplex alkylating agent” (Bioorg Med Chem, 2018).

Activity calls are given as the source filed them. The calls are words filed in the database; no cut-off is given here.

Take `C=Cc1nc(N)nc(NCCCCNc2c3ccccc3nc3c(C(=O)NCCCN(C)C)cccc23)n1`: the outcome in the data set on Quadruplex DNA [1] and in the data set with Quadruplex DNA [3] was Active. Also, the outcome (in [2]; with dsDNA) was inactive. The solubility result in [4] was “Soluble”.

The Kd is a measure of binding affinity in units of concentration. High values mean lower affinity, low ones higher affinity. For `COc1ccc2nc3cc(Cl)ccc3c(NCCCCNc3nc(N)nc(N)n3)c2c1`, the Kd in data set [5] was 510 nM. This counts as sub-micromolar.

In the case of `C=Cc1nc(N)nc(NCCCCNc2c3ccccc3nc3c(C(=O)NCCCN(C)CCCNC(C)=O)cccc23)n1`, the result in the data set on Quadruplex DNA [1] and in the data set with Quadruplex DNA [3] was Active. Further, the outcome (in [2]; with dsDNA) was inactive. Also, the solubility result in data set [4] is on record as “Soluble”.

`COc1ccc2nc3cc(Cl)ccc3c(NCCCCNc3nc(N)nc(CCSC)n3)c2c1`: the dissociation constant Kd stood at 1940 nM on Quadruplex DNA [6], 610 nM on Quadruplex DNA [7], 1290 nM in data set [8] and 2210 nM at Quadruplex DNA [10]. Moreover, the outcome in the data set with Quadruplex DNA [9] was inactive.

One may read the ΔTm as the shift of the melting midpoint relative to a reference. In the case of `C=Cc1nc(N)nc(NCCCCNc2c3ccc(Cl)cc3nc3ccc(OC)cc23)n1`, the figures for the ΔTm with Quadruplex DNA [11] and with Quadruplex DNA [15] were 12.7 °C and 5.4 °C, respectively. For the same molecule, the outcome (in the data set with Quadruplex DNA [12]; in the data set with Quadruplex DNA [1]; in data set [2]; in the data set with Quadruplex DNA [3]; in the data set with Quadruplex DNA [16]; in the data set with Quadruplex DNA [17]) was Active. In addition, the result in the data set with Quadruplex DNA [18], in the data set with Quadruplex DNA [19], with Quadruplex DNA [20], in the data set with Quadruplex DNA [21], with Quadruplex DNA [22] and in the data set with Quadruplex DNA [23] was Active. In addition, the outcome with Quadruplex DNA [24], in the data set on Quadruplex DNA [25], with Quadruplex DNA [26], in the data set with Quadruplex DNA [27], with Quadruplex DNA [28] and with Quadruplex DNA [29] was Active. Moreover, the result in the data set on dsDNA, with Quadruplex DNA [13] and in the data set with Quadruplex DNA [14] was inactive. The solubility entry in [4] is on record as “Soluble”.

For the molecule `CSCCc1nc(N)nc(NCCCCNc2c3ccccc3nc3c(C(=O)NCCCN(C)C)cccc23)n1`, the Kd at Quadruplex DNA [7] was 440 nM; in [8], 640 nM. The outcome in the data set on Quadruplex DNA [9] was inactive.
